Experimental findings from patent publication US20100256402A1, “NOVEL SOLVATE” (Sandoz AG, priority 2007, published 2010) are described below.

Converted amounts (≈) assume the structure as drawn.

Holding throughout (assay type): physicochemical
The nature of series [1]: Stability after storing different forms of Tigecycline at 80° C. for 7 days. To be noted: for 4-Epi-Tigecycline ambient conditions / Total impurities ambient conditions: ambient conditions (before storage); for 4-Epi-Tigecycline 7 days at 80° C. / Total impurities 7 days at 80° C.: after storing 7 days at 80° C.
A short description of series [2]: Water content and hygroscopicity, open storage for 24 hours at 80% relative humidity. Conditions: for water uptake 1 day at 80% rH: open storage for 24 hours at 80% relative humidity; for water content 1 day at 80% rH: open storage 1 day at 80% rH. The text has this: Furthermore suitable crystalline forms of Tigecycline should be low hygroscopic, as water uptake may cause the formation of undesired byproducts like e.g. 4-Epi-Tigecycline. […] Therefore crystalline form X is less hygroscopic than forms I, II, Ill and V of WO 2006/128150 and also less hygroscopic than form I of WO 2007/127292.

Series [3] in a line: Water solubility testing (saturated solution in distilled water, UV-vis 347 nm). To be noted: for Concentration (water solubility): 30 min. As to the method:
A UV-vis Lambda 35 spectrophotometer (Perkin-Elmer) was used (A=347 nm, 1.0 cm quartz cells). Perkin Elmer® UV WinLab-5.1 software was used.
A saturated solution of Tigecycline in distilled water was prepared and the suspension was stirred at room temperature for 30 minutes with a stirring speed of 1000 U/min. The suspension was filtrated through a 0.45 μm filter. Finally the resulting solution was diluted 10000-fold and measured against water at a wavelength of 347 nm.

In series [1], `CN(C)c1cc(NC(=O)CNC(C)(C)C)c(O)c2c1C[C@H]1C[C@H]3[C@H](N(C)C)C(O)=C(C(N)=O)C(=O)[C@@]3(O)C(O)=C1C2=O` [WO 2006/128150 I, Tigecycline] gave a 4-Epi-Tigecycline ambient conditions of 0.36% and a Total impurities ambient conditions of 0.75%. In addition, in series [2], the “water uptake 1 day at 80% rH” value was 3.00%. For the same molecule, the “Concentration (water solubility)” value in series [3] came out at 201 mg/mL.
The molecule `CN(C)c1cc(NC(=O)CNC(C)(C)C)c(O)c2c1C[C@H]1C[C@H]3[C@H](N(C)C)C(O)=C(C(N)=O)C(=O)[C@@]3(O)C(O)=C1C2=O` [WO 2006/128150 II, Tigecycline] displayed a Total impurities ambient conditions in series [1] of 1.6%. In addition, in series [3], the “Concentration (water solubility)” value was determined as 170 mg/mL.
In series [1], `CN(C)c1cc(NC(=O)CNC(C)(C)C)c(O)c2c1C[C@H]1C[C@H]3[C@H](N(C)C)C(O)=C(C(N)=O)C(=O)[C@@]3(O)C(O)=C1C2=O` [WO 2006/128150 III, Tigecycline] yielded a 4-Epi-Tigecycline ambient conditions of 0.16% and a Total impurities ambient conditions of 0.16%. For the same molecule, the “water content [%] ambient conditions” value in series [2] is on record as 0.69%. Further, the “Concentration (water solubility)” value in series [3] stood at 174 mg/mL.
In series [1], `CN(C)c1cc(NC(=O)CNC(C)(C)C)c(O)c2c1C[C@H]1C[C@H]3[C@H](N(C)C)C(O)=C(C(N)=O)C(=O)[C@@]3(O)C(O)=C1C2=O` [WO 2006/128150 IV, Tigecycline] had a 4-Epi-Tigecycline 7 days at 80° C. of 0.38%, a Total impurities 7 days at 80° C. of 0.87%, a 4-Epi-Tigecycline ambient conditions of 0.23% and a Total impurities ambient conditions of 0.4%. Moreover, in series [2], the “water content [%] ambient conditions” value is on record as 2.90% and the “water uptake 1 day at 80% rH” value is on record as 0.43%. The solubility at 30 min in series [3] (distilled water, water, thermodynamic from solid, distilled water, room temperature, stirred 30 minutes, 0.45 μm filter, read-out: Concentration (water solubility)) came out at 322 mg/mL (≈ 550 mM).
In series [1], `CN(C)c1cc(NC(=O)CNC(C)(C)C)c(O)c2c1C[C@H]1C[C@H]3[C@H](N(C)C)C(O)=C(C(N)=O)C(=O)[C@@]3(O)C(O)=C1C2=O` [WO 2006/128150 V, Tigecycline] had a 4-Epi-Tigecycline 7 days at 80° C. of 0.18%, a Total impurities 7 days at 80° C. of 0.37%, a 4-Epi-Tigecycline ambient conditions below 0.05% and a Total impurities ambient conditions of 0.22%. The “water content [%] ambient conditions” value in series [2] is 0.19%.
In series [1] (listed as WO 2007/127792 I), `CN(C)c1cc(NC(=O)CNC(C)(C)C)c(O)c2c1C[C@H]1C[C@H]3[C@H](N(C)C)C(O)=C(C(N)=O)C(=O)[C@@]3(O)C(O)=C1C2=O` [WO 2007/127292 I, Tigecycline] yielded a 4-Epi-Tigecycline 7 days at 80° C. of 1.26%, a Total impurities 7 days at 80° C. of 2.22%, a 4-Epi-Tigecycline ambient conditions of 0.34% and a Total impurities ambient conditions of 0.59%. In series [2], the “water content [%] ambient conditions” value is 0.13%, the “water content 1 day at 80% rH” value is 6.39% and the “water uptake 1 day at 80% rH” value turned out to be 6.26%. In addition, in series [2] (listed as form I of WO 2007/127292), the “water uptake 1 day at 80% rH” value is 6.26%. In addition, the “Concentration (water solubility)” value in series [3] was determined as 54 mg/mL.
On to `CN(C)c1cc(NC(=O)CNC(C)(C)C)c(O)c2c1C[C@H]1C[C@H]3[C@H](N(C)C)C(O)=C(C(N)=O)C(=O)[C@@]3(O)C(O)=C1C2=O` [WO 2007/127292 II, Tigecycline], for which, in series [1] (listed as WO 2007/127792 II), the 4-Epi-Tigecycline 7 days at 80° C. turned out to be 0.38%, the Total impurities 7 days at 80° C. turned out to be 0.91%, the 4-Epi-Tigecycline ambient conditions amounted to 0.17% and the Total impurities ambient conditions was 0.24%. Moreover, in series [2], the “water content [%] ambient conditions” value is listed as 0.18%, the “water content 1 day at 80% rH” value turned out to be 0.25% and the “water uptake 1 day at 80% rH” value is on record as 0.07%.
As to `CN(C)c1cc(NC(=O)CNC(C)(C)C)c(O)c2c1C[C@H]1C[C@H]3[C@H](N(C)C)C(O)=C(C(N)=O)C(=O)[C@@]3(O)C(O)=C1C2=O` [X, Tigecycline], in series [1], the 4-Epi-Tigecycline 7 days at 80° C. is 0.79%, the Total impurities 7 days at 80° C. stood at 3.48%, the 4-Epi-Tigecycline ambient conditions turned out to be 0.2% and the Total impurities ambient conditions was 0.58%. Also, in series [2], the “water content [%] ambient conditions” value is listed as 0.29%, the “water content 1 day at 80% rH” value came to 0.86% and the “water uptake 1 day at 80% rH” value was 0.57%. In series [2] (listed as form X), the “water uptake 1 day at 80% rH” value worked out at 0.57%. In series [3], the “Concentration (water solubility)” value stood at 162 mg/mL.
